Key:
LPS-induced lethality = LPS-induced lethality (IP dosing); format: in vivo, mice; details: 11 × 300 μg/mouse IP (3.3 mg), every 4 hr; 0.6 mg LPS
Description: These experiments were performed based on information reported by Rivier etal., Endocrinology 125:2800-2805 (1989), which is incorporated herein by reference. Adult female Balb/c mice were provided food and water ad libitum. Mice were injected IP every four hr for 40 hr with 30 to 300 μg EX-2, EX-3 or EX-4 in 0.2 ml saline (treated group) or with 0.2 ml saline, alone (control group) (10 mice per group). Immediately following the first injection, 0.6 mg LPS endotoxin in 0.2 ml saline was administered to each mouse. Following LPS injection, EX-2 or saline was administered to the treated mice or the control mice, respectively, every 4 hr for 36 hr.

LPS-induced fever = test: LPS-induced temperature increase (fever); format: in vivo, rats; details: 6 hr following LPS injection
Description: Male Wistar rats (45-75 days old) were placed in a temperature controlled room held at 26° C., which is thermoneutral for the normal body temperature of rats, and were maintained in the room with free access to food and water for 24 hr prior to testing. On the morning of the study, rats were marked for identification and weighed. The temperature of each rat was determined by placing the animal in a regulatory cage designed to minimize stress and inserting a temperature probe (YSI probe #402) 3-5 cm into the animal's rectum. The temperature was recorded 15 sec after the reading stabilized. Measurements were repeated 1 hr later to establish a baseline temperature for each rat.
After the baseline temperatures were established, rats were injected IP with saline, IL-1β or LPS endotoxin. Rats then were injected IP with either saline (control) or various concentrations of EX-2, EX-3, or EX-4 (treated). The temperature of the rats was measured every hr for 6 hr and the inhibition by EX-2, EX-3, or EX-4 of the rise in temperature due to IL-1β or LPS was determined.
In addition, treatment with 50 or 150 μg/kg EX-2 inhibited LPS-induced fever by 45% or 52%, respectively, when measured 6 hr following LPS injection. Furthermore, treatment with 150 μg/kg EX-3 or EX-4 inhibited LPS-induced fever by 57% and 52%, respectively (Table II).

[1] = tested on: arachidonic acid-induced ear swelling; test: Arachidonic acid-induced ear swelling; format: in vivo, mice; details: 100 μg/mouse IP 30 min prior to AA; 60 min after AA
Description: Experiments were performed using female Balb/c mice weighing 18-23 grams. Saline or 100 μg EX-2 or EX-3 was administered IP, 30 min prior to topical application of arachidonic acid (AA). A 10 μl pipet was used to apply 10 μl AA solution (100 mg/ml ethanol; Calbiochem-Novabiochem; San Diego Calif.) to the inner and outer surfaces of the right ear of each mouse. Ten μl ethanol, alone, was applied to the inner and outer surface of the left ear of each mouse. Ear thickness was measured with a hand-held spring loaded caliper immediately before and 60 min after AA application. Increase in ear thickness was calculated by subtracting the change observed in the control ear from the change observed in AA-treated ear. The value for each group (saline and control) is the average of the swelling observed in the individual mice in each group. The percent reduction of swelling is based on the swelling observed in the saline control group.

[2] = tested on: morphine-induced respiratory depression; test: Morphine-induced respiratory depression; format: in vivo, rabbits; details: 10 + 20 + 20 μg/kg/rabbit iv; end of experiment (80 min)
Description: Male Shelton rabbits (3-4 kg) were restrained and fitted around the thorax, just behind the front limbs, with a respiration transducer (Model F-RCT; Grass Instruments; Quincy Ma). The transducer was connected to a grass polygraph via an EKG cable. An intravenous line was established for drug administration by cannulating the marginal ear vein using a 25 G butterfly needle.
Rabbit breathing was allowed to stabilize, then morphine sulfate (2 mg/kg in 0.5 ml saline) was administered by intravenous (iv) injection and respiratory rate and depth were monitored for 10 min. A second dose of morphine was administered, then, after 10 min, EX-2 or EX-3 (10 μg/kg in 0.5 ml saline) was administered, iv, and rabbits were monitored for 20 min. Two additional doses of EX-2 or EX-3 (20 μg/kg in 1.0 ml saline) were administered at 20 min intervals, i.e., 40 min and 60 min after the first morphine injection.
Results were calculated as the percent change from baseline values and are expressed as the difference of the mean value of the treated group minus the mean value of the control group at the end of the experiment (80 min).

[3] = tested on: kidney (renal ischemia/reperfusion); test: Renal ischemia-reperfusion injury; format: in vivo, rats; design: RVR: unit not given here; details: I/R + EX-2 (50 or 500 μg/kg iv, dose not given); 1 hr clamping, after 60 min reperfusion
Description: Sprague-Dawley rats (250-300 g) were anesthetized with inactin® (120 mg/kg). After deep anesthesia was assured, the rats were cannulated in the trachea with polyethylene (PE) tubing (PE 240), jugular vein, femoral artery, bladder (PE 50 for previous 3 cannulations), and left ureter (stretched PE 50). Once cannulation was completed, a 2 cm flank incision above the left kidney was performed and the renal pelvis and vascular bundle were exposed. The tissue surrounding the left renal artery was gently dissected away from the artery. The exposed renal artery was clamped for 1 hr using a small vascular cross-over clamp. Just prior to clamping, EX-2 (50 or 500 μg/kg), ketorolac (KETO, 1 mg/kg), or vehicle was administered intravenously (iv) After 1 hr of clamping (ischemia), the clamp was gently removed with care taken to avoid damaging either the renal artery or nerves.

IL-10 = test: Increasing levels of IL-10 in human plasma; format: in vivo; details: for increase of plasma IL-10: healthy male volunteers
Description: EX-2 was administered by intravenous infusion to eight healthy male volunteers in doses of either 200 or 500 ug/kg. Plasma IL-10 levels increased in two of four volunteers after administration at 200 ug/kg EX-2 (FIG. 3a) and in four of four volunteers after administration of 500 ug/kg EX-2 (FIG. 3b).

Which “Inhibition of LPS-induced Lethality (increase in survival vs control)” value (LPS-induced lethality) does the source give for “Ac-Nle-Gln-His-(D)Phe-Arg-(D)Trp-Gly-NH2 [EX-2]” here?
The value was 83%.

And the “Reduction in LPS-induced Fever” value (LPS-induced fever; 50 μg/kg IP)?
The value was 45%.

What about the “Reduction in LPS-induced Fever” value (LPS-induced fever; 150 μg/kg IP) of the same substance?
The value was 52%.

And the “Reduction in arachidonic acid-induced Ear Swelling” value [1]?
Its value is 72%.

What about the “Reduction in Morphine-induced Respiratory Depression” value [2] of the same substance?
The value was 50%.

And the GFR [3]?
Its GFR is 0.5 ± 0.1.

What about the RPF [3] of the same substance?
Its RPF is 2.3 ± 0.3.

And the RVR [3]?
The RVR was 1.8 ± 0.2.

And the “volunteers in whom plasma IL-10 levels increased” value (IL-10; 200 ug/kg intravenous infusion)?
The value was “two of four”.

What about the “increase of plasma IL-10” value (IL-10; 200 ug/kg intravenous infusion) of the same substance?
The value was 85%.

What about the “volunteers in whom plasma IL-10 levels increased” value (IL-10; 500 ug/kg intravenous infusion) of the same substance?
Its value is “four of four”.

And the “increase of plasma IL-10” value (IL-10; 500 ug/kg intravenous infusion)?
The value was 230%.
